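Protocol summary: plate cells (96-well), add compound at 5 concentrations, incubate 48 h, interpolate endpoints linearly. GI50 = concentration required for 50% inhibition of growth.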 Active and inactive are the calls of the source. Cut-off read from the data, not from the text of the source: active = GI50 up to about 1.1 µM and inactive = higher.
Tests used:
Test in all cases: NCI tumour cell line growth inhibition, 48 h
[1] = system: LOX IMVI
[2] = system: OVCAR-8
[3] = system: EKVX
[4] = system: CCRF-CEM
[5] = system: SF-295
[6] = system: 786-0
[7] = system: RPMI-8226
[8] = system: Malme-3M
[9] = system: OVCAR-5
[10] = system: SNB-19
[11] = system: DMS-114
[12] = system: KM-20L2
[13] = system: SK-MEL-28
[14] = system: RXF 393
[15] = system: NCI-H460
[16] = system: HOP-62
[17] = system: CAKI-1
[18] = system: HOP-18
[19] = system: SNB-78
[20] = system: IGROV-1
[21] = system: A498
[22] = system: A549
[23] = system: SF-268
[24] = system: SK-MEL-2
[25] = system: OVCAR-3
[26] = system: TK-10
[27] = system: ACHN
[28] = system: M14
[29] = system: HL-60
[30] = system: NCI-H226
[31] = system: SN12C
[32] = system: SF-539
[33] = system: HCC 2998
[34] = system: SNB-75
[35] = system: SW-620
[36] = system: COLO 205
[37] = system: NCI-H23
[38] = system: HCT-116
[39] = system: NCI-H522
[40] = system: U-251
[41] = system: HOP-92
[42] = system: UACC-257
[43] = system: SK-MEL-5
[44] = system: SK-OV-3
[45] = system: K562
[46] = system: KM12
[47] = system: RXF 631
[48] = system: UACC-62
[49] = system: UO-31
[50] = system: SR
[51] = system: OVCAR-4
[52] = system: LXFL 529
[53] = system: MOLT-4
[54] = system: M19-MEL
[55] = system: HT-29
[56] = system: HCT-15
[57] = system: XF498
[58] = system: DMS-273
[59] = system: DLD-1
[60] = system: MCF7
[61] = system: NCI/ADR-RES

Measured: GI50

O=C(N/C(=C/c1cccc([N+](=O)[O-])c1)c1nc2cc(Cl)ccc2[nH]1)c1ccccc1
active: [4] 1.07 µM
inactive: [1] 4.53 µM | [2] 7.5 µM | [3] 3.14 µM | [5] 36.9 µM | [6] 15.7 µM | [7] 2.71 µM | [8] 12.8 µM | [9] 27.8 µM | [10] 36.3 µM | [11] 8.51 µM | [12] 10.5 µM | [13] 22.6 µM | [14] 12.4 µM | [15] 10.4 µM | [16] 17.7 µM | [17] 11.1 µM | [18] 30.9 µM | [19] 39.9 µM | [20] 4.53 µM | [21] 13 µM | [22] 14.2 µM | [23] 11.7 µM | [24] 16.1 µM | [25] 19.6 µM | [26] 3.67 µM | [27] 11.3 µM | [28] 20.7 µM | [29] 1.99 µM | [30] 24.4 µM | [31] 14.3 µM | [32] 3.51 µM | [33] 23.1 µM | [34] 19.2 µM | [35] 5.55 µM | [36] 41.9 µM | [37] 11.4 µM | [38] 8.95 µM | [39] 4.07 µM | [40] 9.73 µM | [41] 19.1 µM | [42] 43.8 µM | [43] 2.82 µM | [44] 17.3 µM | [45] 6.21 µM | [46] 5.41 µM | [47] 10.5 µM | [48] 5.4 µM | [49] 2.18 µM | [50] 3.61 µM | [51] 17.4 µM | [52] 12.6 µM | [53] 3.83 µM | [54] 24 µM | [55] 8.95 µM
6.01 µM: [56]

CCN1C(C)=NC2C(=O)c3ccccc3C(=O)C21 (stereo not drawn)
57.4 µM: [56]
inactive: [1] 46.9 µM | [2] 74.1 µM | [3] > 10 µM | [4] 47 µM | [5] 82.2 µM | [6] 65.5 µM | [7] 55.7 µM | [8] 40 µM | [10] 81.7 µM | [11] 32.2 µM | [12] 27.2 µM | [13] > 100 µM | [14] > 100 µM | [15] 30.1 µM | [16] 37.4 µM | [20] 38.1 µM | [21] > 100 µM | [57] 42.5 µM | [22] 41.6 µM | [23] 57.7 µM | [24] > 100 µM | [25] 27.4 µM | [58] 48.6 µM | [26] > 100 µM | [27] 74.8 µM | [28] 66.5 µM | [29] 37.8 µM | [30] 63 µM | [31] 40.8 µM | [32] 40.3 µM | [33] 27.4 µM | [34] 37.8 µM | [35] 32.6 µM | [36] 33.5 µM | [37] 50.7 µM | [38] 36.2 µM | [40] > 100 µM | [42] 31.2 µM | [43] 24.1 µM | [45] 78.9 µM | [47] > 100 µM | [48] 43 µM | [49] > 100 µM | [50] 52.5 µM | [51] 21 µM | [52] 94.4 µM | [53] 43 µM | [54] 34.8 µM | [55] 28.8 µM

CCN(CC)Cc1cc(Nc2ccnc3ccc4nn(C)nc4c23)ccc1O
inactive: [1] 7.73 µM | [2] 11.4 µM | [4] > 100 µM | [5] 13.6 µM | [6] 11.8 µM | [7] 7.85 µM | [8] 16.9 µM | [9] 12.6 µM | [10] 28 µM | [12] 6.89 µM | [13] 14 µM | [14] 9.25 µM | [15] 5.64 µM | [16] 16.9 µM | [17] 28.8 µM | [19] 15.9 µM | [20] 25.2 µM | [57] 11.8 µM | [22] 21.1 µM | [23] 13.6 µM | [25] 12.3 µM | [26] 22.4 µM | [27] 9.25 µM | [28] 14.3 µM | [29] 84.9 µM | [30] 22.5 µM | [31] 11.3 µM | [32] 13.6 µM | [33] 13.3 µM | [34] 12.3 µM | [35] 5.55 µM | [36] 5.02 µM | [37] 15.3 µM | [38] 4.79 µM | [39] 9.29 µM | [40] 15.3 µM | [42] 13.9 µM | [43] 16.3 µM | [44] 18.5 µM | [45] > 100 µM | [46] 10.5 µM | [47] 7.78 µM | [48] 13.7 µM | [49] 11.9 µM | [50] 74.6 µM | [51] 10.4 µM | [52] 12.6 µM | [53] 6.58 µM | [54] 11.9 µM | [55] 4.7 µM
16.7 µM: [56]

C=C1CC2CC[C@@]34C[C@@H]5O[C@@H]6C(O[C@H]7CC[C@H](CC(=O)OC8[C@@H](C)C9OC%10C[C@]%11(C[C@@H]%12O[C@@]%13(C[C@@H](C)[C@@H]%12O%11)C[C@H](C)[C@@H]%11OC%12CC(C(O)CO)OC%12C[C@@H]%11O%13)OC%10CC9O[C@H]8C[C@H]8O[C@@H](CC[C@@H]1O2)C[C@@H](C)C8=C)O[C@@H]7[C@@H]6O3)C5O4 (stereo partly drawn)
active: [1] 0.000469 µM | [2] 0.00249 µM | [3] 0.00405 µM | [4] 0.000977 µM | [5] 0.000453 µM | [6] 0.00211 µM | [7] 0.00185 µM | [8] 0.000904 µM | [9] 0.00904 µM | [10] 0.00211 µM | [12] 0.000428 µM | [13] 0.0014 µM | [14] 0.000685 µM | [15] 8.26e-05 µM | [59] 0.00267 µM | [16] 0.00141 µM | [17] 0.000484 µM | [19] 0.00178 µM | [20] 0.00248 µM | [21] 0.00197 µM | [57] 0.000267 µM | [22] 0.00168 µM | [23] 0.00229 µM | [24] 0.00125 µM | [25] 0.000279 µM | [58] 0.000499 µM | [60] 0.000148 µM | [26] 0.00863 µM | [27] 0.0038 µM | [28] 0.00108 µM | [29] 0.000321 µM | [30] 0.00179 µM | [31] 0.00313 µM | [32] 0.000933 µM | [33] 0.00225 µM | [34] 0.000434 µM | [35] 0.000485 µM | [36] 0.000667 µM | [37] 0.00104 µM | [38] 0.000582 µM | [39] 0.000213 µM | [40] 0.00103 µM | [41] 0.00236 µM | [42] 0.000262 µM | [43] 0.000308 µM | [44] 0.00166 µM | [45] 0.000755 µM | [46] 0.000494 µM | [47] 0.000603 µM | [48] 0.000494 µM | [49] 0.00673 µM | [50] 0.000718 µM | [51] 0.00471 µM | [52] 0.000564 µM | [61] 0.00471 µM | [53] 0.00135 µM | [55] 0.000357 µM
0.000476 µM: [56]

O=C1c2ccccc2C(=O)c2c(O)c(O)cc(O)c21 [PURPURIN]
inactive: [1] 43.7 µM | [2] 55.5 µM | [3] 50.9 µM | [4] 35 µM | [5] 51.6 µM | [6] 25.8 µM | [7] 25.8 µM | [8] 32.7 µM | [9] 80.7 µM | [10] 34.1 µM | [13] 38.6 µM | [14] 21.7 µM | [15] 34.5 µM | [59] 31.5 µM | [16] 23.7 µM | [17] 44 µM | [19] 38.2 µM | [20] 31.6 µM | [21] 31 µM | [57] 22.9 µM | [22] 44.7 µM | [23] 42.4 µM | [24] 21.2 µM | [25] 22.4 µM | [58] 38.1 µM | [26] 81.3 µM | [27] 27.4 µM | [28] 41.3 µM | [29] 24 µM | [31] 34.7 µM | [32] 17.8 µM | [33] 32.7 µM | [34] 85.9 µM | [35] 40.1 µM | [36] 34 µM | [37] 29.9 µM | [38] 24.5 µM | [39] 33.6 µM | [40] 35.6 µM | [41] 25.2 µM | [42] 49.4 µM | [43] 37.9 µM | [44] 31.8 µM | [45] 36.5 µM | [46] 41.5 µM | [47] 39.4 µM | [48] 26.1 µM | [49] 19 µM | [51] 41 µM | [52] 37.2 µM | [53] 34 µM | [54] 36.7 µM
36.5 µM: [56]
